Here are results for one compound from DBAASP.

Structures are written as SMILES. Values after ≈ are worked out from the molar mass of the structure shown. A value given as a limit tells only on which side of the number the result lay.

Assay in all cases: ≥ marks a high value that may be exact or a test limit, other limits are often not marked, values filed in µg/mL are converted to µM
In assay [1] the test system is Bacillus subtilis ATCC 6633.
Assay [2] concerns Klebsiella pneumoniae ATCC 10031.
Assay [3] concerns Candida albicans ATCC 36232.
Assay [4] relates to Pseudomonas aeruginosa ATCC 9027.
For assay [5], the system named is Escherichia coli KCTC 2433.
For assay [6], the system named is Proteus mirabilis ATCC 25933.
In assay [7] the test system is Micrococcus luteus ATCC 4698.
Assay [8] concerns Staphylococcus aureus KCTC 3881.
Assay [9] deals with Shigella dysenteriae ATCC 9752.
The test system of assay [10] is Staphylococcus epidermidis ATCC 12228.

For `CC[C@H](C)[C@H](NC(=O)[C@H](CC(C)C)NC(=O)[C@@H](N)Cc1ccccc1)C(=O)NCC(=O)N[C@@H](CCSC)C(=O)N[C@H](C(=O)N[C@@H](Cc1cnc[nH]1)C(=O)NCC(=O)N[C@@H](CC(C)C)C(=O)N[C@H](C(=O)N[C@H]1CSSC[C@@H](C(=O)O)NC(=O)[C@H](CCCCN)NC(=O)[C@H](CCCN=C(N)N)NC(=O)[C@H](CO)NC(=O)[C@H]([C@@H](C)CC)NC(=O)[C@H](CC(C)C)NC1=O)[C@@H](C)CC)[C@@H](C)O` [FLIGMTHGLICLISRKC], the MIC in assay [1] was 26.2 µM (≈ 49.9 µg/mL); in assay [2], ≥ 52.5 µM; in assay [3] it was ≥ 52.5 µM; in [4] it was > 52.5 µM; in assay [5] it was ≥ 52.5 µM; in assay [6] it was ≥ 52.5 µM. The MIC is 6.56 µM (≈ 12.5 µg/mL) in assay [7], 13.1 µM (≈ 25 µg/mL) in assay [8], ≥ 52.5 µM in [9] and 31.5 µM (≈ 59.9 µg/mL) in assay [10].
